Laboratory results reported in ChEMBL document CHEMBL1155595, “Inhibition of T-lymphocyte proliferation by cucurbitacins from Picrorhiza scrophulariaeflora” (J Nat Prod, 2000).

How the values were obtained:
[1] = Cytotoxicity against human peripheral blood lymphocytes at <60 uM after 4 days by CFDA/PI labeling assay; settings: pbl, 96 h
[2] = Inhibition of phytohemagglutininin A-induced T-cell proliferation in human peripheral blood lymphocytes after 4 days by MTT assay; assay type: functional, cell-based; settings: PBL, 96 h
[3] = Cytotoxicity against human peripheral blood lymphocytes assessed as LDH release upto 50 uM after 24 hrs; settings: pbl

Row | SMILES | Activity [1] [%] | IC50 [2] [µM] | Activity [3]
1 | CC(C)(O)/C=C/C(=O)[C@@](C)(O)[C@H]1[C@H](O)C[C@@]2(C)[C@@H]3CC=C4[C@@H](C[C@H](O)[C@H](O)C4(C)C)[C@]3(C)CC[C@]12C [DEACETYLPICRACIN] | < 10 | 1 | Non-toxic
2 | CC(=O)OC(C)(C)/C=C/C(=O)[C@@](C)(O)[C@H]1[C@H](O)C[C@@]2(C)[C@@H]3CC=C4[C@@H](C[C@H](O)[C@H](O)C4(C)C)[C@]3(C)CC[C@]12C [PICRACIN] | < 10 | 1 | Non-toxic
